The record followed here is US9845482B2, “Compositions and methods for enhancing bioenergetic status in female germ cells” (The General Hospital Corporation, priority 2011, dated 2017).

Assay [1] deals with MII oocytes of aged female mice (C57BL/6). The experiment in a line: Dietary supplementation of aged female mice: spindle abnormalities and chromosomal misalignment in MII oocytes. It counts as in vivo. Conditions: for chromosomal misalignment in MII oocytes (change) / percentage of spindle abnormalities in MII oocytes (change): compared to Hist 12 M; for chromosomal misalignment, present in % of oocytes / spindle abnormalities, present in % of oocytes: diet for 3 months, apigenin 0.5 g/kg, luteolin 0.5 g/kg, SRT-1720 2 g/kg. As to the method:
Confocal analysis of α-tubulin and DNA distribution were examined. Superovulated oocytes were denuded of cumulus cells, briefly incubated in Acidified Tyrode's Solution (Irvine Scientific, Santa Ana, Calif., USA) to soften the zona pellucida, and immunostained using mouse anti-α-tubulin antibody (Sigma Aldrich Corporation, St. Louis, Mo., USA) followed by goat anti-mouse IgG conjugated with Alexa Fluor-488 (Life Technologies, Carlsbad, Calif.). Oocytes were mounted using Vectashield containing propidium iodide (PI; Vector Laboratories) and analyzed by confocal microscopy.
Female mice (8 months old, strain C57BL/6) were maintained on a 12:12 light dark cycle and provided ad-libitum access to water and food. Conditions within rooms were maintained at 21°±1° C. with 50%±20% relative humidity. Mice were placed on the experimental diets at 8.5 months of age and were maintained for 3 months on the diets. All diets were custom made, ordered from Research Diets: OpenStandard Diet (20 kcal % Protein, 15 kcal % Fat and 65 kcal % Carbohydrate) and the experimental groups consisted of regular OpenStandard Diet, OpenStandard Diet+Apigenin at 0.5 g/kg of body weight, OpenStandard Diet+Luteolin at 0.5 g/kg, and OpenStandard Diet+SRT-1720 at 2 g/kg. Food intake was measured weekly and average weight gain was assessed every two weeks. Each experimental group consisted of 12 randomly allocated mice. When mice were euthanized an additional group of 3-month old C57BL/6 females (3 M) were used as positive controls. In all groups, oocyte numbers were assessed following hormonal stimulation for superovulation.
Methods for determining spindle abnormalities and chromosomal misalignment are described above in Example 8. Abnormal mitochondrial distribution was determined to be present in 16.13% of oocytes from 3 M mice, 46% of oocytes from Hist 12 M mice, 7.7% of oocytes following supplementation with apigenenin, 12% of oocytes following supplementation with luteolin and 6.9% of oocytes following supplementation with SRT-1720. Spindle abnormalities were determined to be present in 18.3% of oocytes in 3 M mice, 60% of oocytes in Hist 12 M mice, 32% of oocytes following supplementation with apigenenin, 32% of oocytes following supplementation with luteolin and 32.8% of oocytes following supplementation with SRT-1720. Chromosomal misalignment was determined to be present 18.3% of oocytes in 3 M mice, 62% of oocytes in Hist 12 M mice, 44% of oocytes from mice supplemented with apigenenin, 40% of oocytes following supplementation with luteolin and 40.9% of oocytes following supplementation with SRT-1720.

In assay [2] the test system is OSCs from mice. Description: Screen of mouse OSCs for compounds that enhance mitochondrial function (mtDNA, ATP, mitochondrial mass, membrane potential, gene expression). The assay is classed as cell-based. Particulars: 24 hours; for activity above the baseline (DMSO alone), scored as a positive result: 25 or 50 μM (berberine 5 μM and 25 μM). The text has this: Female infertility due to chemotherapy, aging and premature ovarian failure (POF) is due in part to a decline in mitochondrial function in oocytes and OSCs. Accordingly, OSCs from mice were used to screen for small compounds that enhance mitochondrial function (“bioenergetic status”) in female germline cells. Assays for enhancing mitochondrial function included mtDNA content, ATP, NAD+/NADH, mitochondrial mass, mitochondrial membrane potential, and gene expression of known mitochondrial mass regulators and electron transport chain components.
All the compounds were dissolved in DMSO. For screening purposes the cells were treated with the vehicle (0.001% DMSO) or with 25 or 50 μM of each compound (except for berberine, which the concentrations used for the screen were 5 μM and 25 μM) for 24 hours. For validation of the top 6 hits, cells were treated with vehicle (0.001% DMSO) or either 5 or 25 μM of each compound for 24 hours. For the gene expression profile, the cells were treated with the concentration that was considered to work better in the previous validation assays.
Mitochondrial membrane potential was measured with a fluorescent probe, Tetramethylrhodamine methyl ester (TMRM) (Sigma) as described before (Rolo A. P. Biochim. Biophys. Acta 2003 1637: 127-132). Briefly the cells were loaded with 6.6 μM TMRM in HBSS buffer at 37° C. for 15 minutes in the dark. The supernatant was then aspirated, and the cells returned to the original volume with KHH. TMRM is a membrane-permeable cationic fluorophore that accumulates electrophoretically in mitochondria in proportion to their mitochondrial membrane potential (Ehrenberg B. V. et al. Biophys. J. 1988 53:785-794). Cell suspensions (200 μl containing 10^5 cells) were loaded into 96-well plates and fluorescence measured using excitation and emission wavelengths of 485 and 590 nm, respectively. Mitochondrial membrane potential was estimated, taking into account the complete depolarization caused by carbonyl cyanide p-(trifluoromethoxy)phenylhydrazone (FCCP).
For mtDNA analysis, total DNA was extracted with DNeasy blood and tissue kit (QIAGEN). mtDNA was amplified using primers specific for the mitochondrial cytochrome c oxidase subunit 2 (COX2) gene and normalized to genomic DNA by amplification of the ribosomal protein s18 (rps18) nuclear gene. Primers were designed using the IDT software (IDT).
ATP content was measured using a luciferase-based assay with a commercial kit according to the manufacturer's instructions (Roche Applied Science, Penzberg, Germany) and normalized to protein content in each sample.
Mitochondrial mass was evaluated using the fluorescent probe N-nonyl acridine orange (NAO), briefly the cells were incubated in culture media containing 10 nM of NAO for 30 minutes at 37° C. in the dark. The cells were then trypsinized and resuspended in culture media without NAO. The NAO fluorescence intensity was then determined by flow cytometry on the FACSCALIBUR® (BD Biosciences, San Jose, Calif., USA) using the 488 nm laser.
For gene expression analysis, RNA from skeletal muscle tissue and C2C12 cells were extracted with RNeasy mini kit (QIAGEN) according to the instructions and quantified using the NanoDrop 1000 spectrophotometer (Thermo Scientific). cDNA was synthesized with the iSCRIP cDNA synthesis kit (BioRad) using 200 ng of RNA. Quantitative RT-PCR reactions were performed using 1 μM of primers and LIGHTCYCLER® 480 SYBR® Green Master (Roche Applied Science, Penzberg, Germany) on an LIGHTCYCLER® 480 detection system (Roche Applied Science, Penzberg, Germany). Calculations were performed by a comparative method (2-ΔΔCT) using actin as an internal control. Primers were designed using the IDT software (IDT).

`O=C(Nc1ccccc1-c1cn2c(CN3CCNCC3)csc2n1)c1cnc2ccccc2n1` [SRT-1720, N-[2[3-(piperazin-1-ylmethyl)imidazo[2,1-b][1,3]thiazol-6-yl]phenyl]quinoxaline-2-carboxamide]: in assay [1], the “chromosomal misalignment in MII oocytes (change)” value is reported as “reduced chromosomal misalignment”; the “percentage of spindle abnormalities in MII oocytes (change)” value is given as “reduced percentage of spindle abnormalities”; the “chromosomal misalignment, present in % of oocytes” value stood at 40.9%; the “spindle abnormalities, present in % of oocytes” value is on record as 32.8%. Further, in assay [2], the mitochondrial parameters entry was “increase mitochondrial parameters in a beneficial way” and the “activity above the baseline (DMSO alone), scored as a positive result” value (from here on “activity above the baseline (DMSO alone)”) is reported as “activity above the baseline”.

Turning to `O=c1cc(-c2ccc(O)cc2)oc2cc(O)cc(O)c12` [apigenin, 5,7-Dihydroxy-2-(4-hydroxyphenyl)-4H-1-benzopyran-4-one], in assay [1], the “chromosomal misalignment in MII oocytes (change)” value was “reduced chromosomal misalignment”; the “percentage of spindle abnormalities in MII oocytes (change)” value is listed as “reduced percentage of spindle abnormalities”; the “chromosomal misalignment, present in % of oocytes” value turned out to be 44%; the “spindle abnormalities, present in % of oocytes” value stood at 32%. In assay [2], the mitochondrial parameters entry was “increase mitochondrial parameters in a beneficial way” and the “activity above the baseline (DMSO alone)” value is “activity above the baseline”.

For the molecule `O=c1cc(-c2ccc(O)c(O)c2)oc2cc(O)cc(O)c12` [luteolin, 2-(3,4-Dihydroxyphenyl)-5,7-dihydroxy-4-chromenone], in assay [1], the “chromosomal misalignment in MII oocytes (change)” value is on record as “reduced chromosomal misalignment”; the “percentage of spindle abnormalities in MII oocytes (change)” value is “reduced percentage of spindle abnormalities”; the “chromosomal misalignment, present in % of oocytes” value came to 40%; the “spindle abnormalities, present in % of oocytes” value stood at 32%. Further, in assay [2], the mitochondrial parameters result is given as “increase mitochondrial parameters in a beneficial way” and the “activity above the baseline (DMSO alone)” value is “activity above the baseline”.
